Measured values reported in patent US9556237B2 (priority 2012, dated 2017).
Peptide text beside a SMILES is read from it.

System: Vero E6 cells

Compound: CSCC[C@H](N)C(=O)N[C@@H](Cc1ccccc1)C(=O)N[C@@H](CC(C)C)C(=O)NCC(=O)N[C@@H](Cc1c[nH]c2ccccc12)C(=O)N[C@@H](CO)C(=O)N[C@@H](Cc1ccccc1)C(=O)N[C@@H](CC(=O)O)C(=O)N[C@@H](Cc1ccccc1)C(=O)NCC(=O)N[C@@H](CO)C(=O)N[C@@H](CC(C)C)C(=O)N[C@@H](Cc1c[nH]c2ccccc12)C(=O)NCC(=O)N[C@@H](CC(N)=O)C(=O)N[C@@H](CCCCN)C(=O)N1CCC[C@H]1C(=O)N[C@@H](Cc1c[nH]c2ccccc12)C(=O)N[C@@H](Cc1ccccc1)C(=O)O [RVFV-6sc, MFLGWSFDFGSLWGNKPWF, reference compound] (H-MFLGWSFDFGSLWGNKPWF-OH)
- impact on cell proliferation (MTT assay): little negative impact on cell proliferation
